Experimental data from patent publication US12466800B2, “N-((1,2,3,5,6,7-hexahydro-S-indacen-4-yl)carbamoyl)-4, 5, 6, 7-tetrahydrobenzofuran-2-sulfonamide derivatives and related compounds as NLPR3 modulators for the treatment of multiple sclerosis (MS)” (Zomagen Biosciences Ltd, priority 2019, dated 2025).

These compounds were tested on IL-1b (assay: Mouse BMDM IL-1b Assay). Conditions: Macrophage; mouse bone marrow derived macrophages (C57BL6); 200 ng/mL LPS 3 h, compound 30 min, 5 mM ATP 45 min; IL-1b ELISA of supernatant.
Assay type: cell-based
In short: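 C57BL6 bone marrow macrophages, differentiated 7 days with 20 ng/mL MCSF, were primed with 200 ng/mL LPS for 3 h at 37° C, given compound for 30 min, then 5 mM ATP for 45 min. Supernatant IL-1b was measured by ELISA against standards; IC50 fitted by Levenberg-Marquardt.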

Structure (SMILES)	IC50 [nM]
CN1CCc2sc(S(=O)(=O)NC(=O)Nc3c4c(cc5c3CCC5)CCC4)cc2C1 [Compound 113, N-((1,2,3,5,6,7-hexahydro-s-indacen-4-yl)carbamoyl)-5-methyl-4,5,6,7-tetrahydrothieno[3,2-c]pyridine-2-sulfonamide]	< 100
CC1(C)CCc2oc(S(=O)(=O)NC(=O)Nc3c4c(cc5c3CCC5)CCC4)cc2C1(C)O (stereo not drawn) [Compound 11, N-((1,2,3,5,6,7-hexahydro-s-indacen-4-yl)carbamoyl)-4-hydroxy-4,5,5-trimethyl-4,5,6,7-tetrahydrobenzofuran-2-sulfonamide]	< 100
CC1Cc2oc(S(=O)(=O)NC(=O)Nc3c4c(cc5c3CCC5)CCC4)cc2C(C)(O)C1 (stereo not drawn) [Compound 16, N-((1,2,3,5,6,7-hexahydro-s-indacen-4-yl)carbamoyl)-4-hydroxy-4,6-dimethyl-4,5,6,7-tetrahydrobenzofuran-2-sulfonamide]	< 100
CC(C)C1Cc2oc(S(=O)(=O)NC(=O)Nc3c4c(cc5c3CCC5)CCC4)cc2C(C)(O)C1 (stereo not drawn) [Compound 27, N-((1,2,3,5,6,7-hexahydro-s-indacen-4-yl)carbamoyl)-4-hydroxy-6-isopropyl-4-methyl-4,5,6,7-tetrahydrobenzofuran-2-sulfonamide]	< 100
O=C(Nc1c2c(c(Br)c3c1CCC3)CCC2)NS(=O)(=O)c1cc2c(o1)CCC/C2=N\O [Compound 95, (E)-N-((8-bromo-1,2,3,5,6,7-hexahydro-s-indacen-4-yl)carbamoyl)-4-(hydroxyimino)-4,5,6,7-tetrahydrobenzofuran-2-sulfonamide]	100 to 1000
CC1(O)CCCc2oc(S(=O)(=O)NC(=O)Nc3c4c(c(F)c5c3CCC5)CCC4)cc21 (stereo not drawn) [Compound 47, N-((8-fluoro-1,2,3,5,6,7-hexahydro-s-indacen-4-yl)carbamoyl)-4-hydroxy-4-methyl-4,5,6,7-tetrahydrobenzofuran-2-sulfonamide]	< 100
CC1(C)CCC(C)(O)c2cc(S(=O)(=O)NC(=O)Nc3c4c(cc5c3CCC5)CCC4)oc21 (stereo not drawn) [Compound 12, N-((1,2,3,5,6,7-hexahydro-s-indacen-4-yl)carbamoyl)-4-hydroxy-4,7,7-trimethyl-4,5,6,7-tetrahydrobenzofuran-2-sulfonamide]	< 100
O=C(Nc1c2c(c(F)c3c1CCC3)CCC2)NS(=O)(=O)c1cc2c(o1)CCC/C2=N\O [Compound 90, (E)-N-((8-fluoro-1,2,3,5,6,7-hexahydro-s-indacen-4-yl)carbamoyl)-4-(hydroxyimino)-4,5,6,7-tetrahydrobenzofuran-2-sulfonamide]	< 100
CC(C)C1Cc2oc(S(=O)(=O)NC(=O)Nc3c4c(cc5c3CCC5)CCC4)cc2C(O)C1 (stereo not drawn) [Compound 28, N-((1,2,3,5,6,7-hexahydro-s-indacen-4-yl)carbamoyl)-4-hydroxy-6-isopropyl-4,5,6,7-tetrahydrobenzofuran-2-sulfonamide]	100 to 1000
Cc1c2c(c(NC(=O)NS(=O)(=O)c3cc4c(o3)CCCC4(C)O)c3c1CCC3)CCC2 (stereo not drawn) [Compound 51, 4-hydroxy-4-methyl-N-((8-methyl-1,2,3,5,6,7-hexahydro-s-indacen-4-yl)carbamoyl)-4,5,6,7-tetrahydrobenzofuran-2-sulfonamide]	< 100
O=C(Nc1c2c(cc3c1CCC3)CCC2)NS(=O)(=O)c1cc2c(o1)CCCC2(O)C(F)(F)F (stereo not drawn) [Compound 56, N-((1,2,3,5,6,7-hexahydro-s-indacen-4-yl)carbamoyl)-4-hydroxy-4-(trifluoromethyl)-4,5,6,7-tetrahydrobenzofuran-2-sulfonamide]	< 100
CC1(C)CCc2oc(S(=O)(=O)NC(=O)Nc3c4c(cc5c3CCC5)CCC4)cc2C1=NO [Compound 50, N-((1,2,3,5,6,7-hexahydro-s-indacen-4-yl)carbamoyl)-4-(hydroxyimino)-5,5-dimethyl-4,5,6,7-tetrahydrobenzofuran-2-sulfonamide]	< 100
CC(C)c1cc(Cl)cc(C(C)C)c1NC(=O)NS(=O)(=O)c1cc2c(o1)CCCC2(C)O (stereo not drawn) [Compound 62, N-((4-chloro-2,6-diisopropylphenyl)carbamoyl)-4-hydroxy-4-methyl-4,5,6,7-tetrahydrobenzofuran-2-sulfonamide]	< 100
CC1(O)CCCc2oc(S(=O)(=O)NC(=O)Nc3c4c(c(Br)c5c3CCC5)CCC4)cc21 (stereo not drawn) [Compound 40, N-((8-bromo-1,2,3,5,6,7-hexahydro-s-indacen-4-yl)carbamoyl)-4-hydroxy-4-methyl-4,5,6,7-tetrahydrobenzofuran-2-sulfonamide]	< 100
CC(C)N1CCCc2oc(S(=O)(=O)NC(=O)Nc3c4c(cc5c3CCC5)CCC4)cc2C1=O [Compound 84, N-((1,2,3,5,6,7-hexahydro-s-indacen-4-yl)carbamoyl)-5-isopropyl-4-oxo-5,6,7,8-tetrahydro-4H-furo[3,2-c]azepine-2-sulfonamide]	1000 to 10000
CC(C)c1ccc(Cl)c(C(C)C)c1NC(=O)NS(=O)(=O)c1cc2c(o1)CCC/C2=N\O [Compound 80, (E)-N-((3-chloro-2,6-diisopropylphenyl)carbamoyl)-4-(hydroxyimino)-4,5,6,7-tetrahydrobenzofuran-2-sulfonamide]	100 to 1000
CC(C)c1cc(Cl)cc(C(C)C)c1NC(=O)NS(=O)(=O)c1cc2c(o1)CCC/C2=N\O [Compound 78, (E)-N-((4-chloro-2,6-diisopropylphenyl)carbamoyl)-4-(hydroxyimino)-4,5,6,7-tetrahydrobenzofuran-2-sulfonamide]	1000 to 10000

More lines, now with the values ahead:

IC50 [nM]	Structure (SMILES)
100 to 1000	CC(C)c1cc(F)cc(C(C)C)c1NC(=O)NS(=O)(=O)c1cc2c(o1)CCCC2O (stereo not drawn) [Compound 63, N-((4-fluoro-2,6-diisopropylphenyl)carbamoyl)-4-hydroxy-4,5,6,7-tetrahydrobenzofuran-2-sulfonamide]
< 100	O=C(Nc1c2c(cc3c1CCC3)CCC2)NS(=O)(=O)c1cc2c(s1)CCC/C2=N/O [Compound 125, (Z)-N-((1,2,3,5,6,7-hexahydro-s-indacen-4-yl)carbamoyl)-4-(hydroxyimino)-4,5,6,7-tetrahydrobenzo[b]thiophene-2-sulfonamide]
1000 to 10000	CC(C)c1cccc(C(C)C)c1CC(=O)NS(=O)(=O)c1cc2c(o1)CCC(C)(C)C2O (stereo not drawn) [Compound 74, 2-(2,6-diisopropylphenyl)-N-((4-hydroxy-5,5-dimethyl-4,5,6,7-tetrahydrobenzofuran-2-yl)sulfonyl)acetamide]
100 to 1000	CC1(O)CCCc2oc(S(=O)(=O)NC(=O)Cc3c4c(cc5c3CCC5)CCC4)cc21 (stereo not drawn) [Compound 58, 2-(1,2,3,5,6,7-hexahydro-s-indacen-4-yl)-N-((4-hydroxy-4-methyl-4,5,6,7-tetrahydrobenzofuran-2-yl)sulfonyl)acetamide]
< 100	Cc1c(S(=O)(=O)NC(=O)Nc2c3c(cc4c2CCC4)CCC3)oc2c1C(=O)CCC2 [Compound 91, N-((1,2,3,5,6,7-hexahydro-s-indacen-4-yl)carbamoyl)-3-methyl-4-oxo-4,5,6,7-tetrahydrobenzofuran-2-sulfonamide]
100 to 1000	CN1CCCc2oc(S(=O)(=O)NC(=O)Nc3c4c(cc5c3CCC5)CCC4)cc2C1=O [Compound 57, N-((1,2,3,5,6,7-hexahydro-s-indacen-4-yl)carbamoyl)-5-methyl-4-oxo-5,6,7,8-tetrahydro-4H-furo[3,2-c]azepine-2-sulfonamide]
100 to 1000	CC(C)c1cccc(C(C)C)c1NC(=O)NS(=O)(=O)c1cc2c(o1)CCCC2=NO [Compound 73, N-((2,6-diisopropylphenyl)carbamoyl)-4-(hydroxyimino)-4,5,6,7-tetrahydrobenzofuran-2-sulfonamide]
